Test [1] addresses T1, MAO-B extracted from the rat brain (Rattus norvegicus, UniProt P19643).
T1 construct: Synaptosomes containing the MAO enzyme were isolated from the rat brain; from tissue; host or cells: rat brain synaptosomes (Dawley rats)
T1 sequence (P19643 1-520): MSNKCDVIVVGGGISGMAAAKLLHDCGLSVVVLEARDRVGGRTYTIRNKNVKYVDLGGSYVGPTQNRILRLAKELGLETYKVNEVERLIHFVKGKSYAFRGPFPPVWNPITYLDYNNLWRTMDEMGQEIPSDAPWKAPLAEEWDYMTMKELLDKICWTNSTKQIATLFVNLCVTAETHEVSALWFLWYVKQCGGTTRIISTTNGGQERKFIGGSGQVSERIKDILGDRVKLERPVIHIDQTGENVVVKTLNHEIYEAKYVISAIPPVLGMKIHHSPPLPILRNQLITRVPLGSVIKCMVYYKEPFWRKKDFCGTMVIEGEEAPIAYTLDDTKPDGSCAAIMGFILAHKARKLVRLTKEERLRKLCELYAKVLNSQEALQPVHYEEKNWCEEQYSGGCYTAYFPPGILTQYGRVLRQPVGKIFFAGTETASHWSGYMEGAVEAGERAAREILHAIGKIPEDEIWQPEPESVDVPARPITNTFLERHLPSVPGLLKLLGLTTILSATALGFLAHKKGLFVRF
Kind of test: MAO-B inhibition, Amplex Red monoamine oxidase assay kit. The format is biochemical. The text has this: Synaptosomes containing the MAO enzyme were isolated from the rat brain by the method of Hojas, with some modification. Three Dawley rats of any sex with weight ranging from 200–250 gm were decapitated after administration of an anesthetic agent (mixture of propofol and xylocaine). Immediately, complete brains were removed from the bed of ice on a petri dish, and the brains were washed with ice-chilled PBS (phosphate-buffered saline) of pH 7.0, 0.1M and normal saline. Then, each brain, weighing approximately 1 g, was suspended into 10 mL of ice-chilled […] sucrose pH 7.4 20% w/v accordingly and homogenized for 10 min using Daihan homogenizer HG-15A. Brain homogenate was transferred into a centrifuge tube and centrifuged at a speed of 7500× g rpm for 15 min at 4 °C by a Scan Speed 1730R Microcentrifuge from Labo Gene, Marlborough, MA, USA. The supernatant was preserved, and the solid brain mass debris present on the bottom was discarded. The supernatant was then diluted with ice-chilled distilled PBS as per need and centrifuged over 12,000× g rpm for 20 min at 4 °C through the mentioned microcentrifuge. Then, pellets containing a white solid mass at the bottom (synaptosomes containing the MAO enzyme) were stored, and each pallet was diluted with PBS buffer. Aliquoting of synaptosomes was carried out and stored at −70 °C till the assay was performed.
For the evaluation of the MAO-B inhibition potential of synthesized compounds, the Amplex® Red Monoamine Oxidase Assay kit was purchased from Invitrogen Molecular Probes, Thermo Fisher Scientific, Waltham, MA, USA. This is a one-step fluorometric bioassay that principally detects the resorufin (7-Hydroxy-3H-phenoxazin-3-one), which is a fluorescent moiety formed in the presence of Horseradish Peroxidase (HRP) by the oxidation of nonfluorescent compound Amplex Red (AMR), chemically known as 10-acetyl-3,7-dihydroxyphenoxazine. The hydrogen peroxide (H2O2) was synthesized during the conversion of substrate to its aldehyde product by MAO enzyme action. […] The assay was performed according to the instruction of the manufacturer (http://tools.thermofisher.com/content/sfs/manuals/mp12214.pdf; accessed on 20 October 2020), with a few modifications. The Amplex Red reagent kit was used as compared to other H2O2 detection probes because of its stability and the stability of resorufin, which is a reaction product along with the longer wavelength spectra. Extracted MAO-B enzyme from rat brain was diluted in sodium phosphate buffer of pH 7.4, 0.25 M. The substrate for MAO-B was benzylamine. Pargyline was used as a standard. All the stock solutions of inhibitors were prepared in dimethyl sulfoxide (DMSO) 100%. Different dilutions of inhibitors were prepared in reaction buffer to obtain less than 2% (v/v) DMSO for evading false positive results. The final reaction volume contained a two-fold lower concentration of enzyme and the inhibitors. […] H2O2 working solution was diluted in the reaction buffer to prepare a final concentration of 10 µM H2O2 and used as positive control, and the reaction buffer with no H2O2 was the negative control. The reaction was started by adding 100 µL of working solution in each well of a black, opaque, 96-well microplate holding the controls and samples. A total of 50 µL of the MAO enzyme solution was added into each well. The composition of the working solution was 400 µM Amplex Red reagent, reaction buffer, 2 U/mL HRP, and 2 mM substrate solution. The possible interference that can be produced by the fluorescence of the compounds generated within the reaction mixture because of non enzymatic inhibition was eradicated by the addition of samples with Amplex Red only in the reaction buffer. The fluorescence of the blank (control with no enzyme) was subtracted to correct the background fluorescence. All the reactions were incubated at 37 °C for 30 min. […]

The next test addresses AChE from electric eel (Electrophorus electricus, UniProt O42275). Nature of the test: biochemical. The following applies: mean of three independent measurements, read-out: AChE (IC50 ± SD). The text has this:
The AChE inhibitory potential of the synthesized tryptamine derivatives was investigated using a modified Ellman’s method. In this enzymatic assay, thiocholine, the product of enzymatic hydrolysis, lacks a substantial chromophore for UV detection. Therefore, Ellman’s reagent (DTNB) was employed as the chromogenic chemical. Ellman’s procedure for the in vitro acetylcholinesterase inhibition assay is based on a two-step reaction involving the chemical components DTNB (5,5-dithiobis(2-nitro) benzoic acid), a hydrolyzed substrate (thiocholine), and the enzyme AChE [59]. In the first step, the substrate acetylthiocholine iodide undergoes hydrolysis catalyzed by the AChE enzyme, resulting in the formation of thiocholine and acetic acid. In the second step, TNB (5-thio-2-nitrobenzoic acid) is generated by the reaction between Ellman’s reagent (DTNB) and thiocholine through an electron-shifting process to sulfur. […] Higher enzyme activity is reflected by an increase in absorbance at this wavelength. The formation of TNB is directly associated with the hydrolysis of acetylthiocholine iodide. Each reaction was initiated by taking a 2 mL working solution, which consisted of 150 µL of the sample (either test compounds or positive control), 50 µL of 0.22 units/mL acetylcholinesterase enzyme from electric eel origin (AChE, E.C. 3.1.1.7, in lyophilized powder, ≥1000 unit), and sodium phosphate buffer (0.1 M, pH 7.4), making it up to a total of 2 mL. The working solution was then incubated at room temperature ([…]) for 15 min, after which 1 mL of Ellman’s solution (200 µL of 75 mM ACTI and 500 µL of 10 mM DTNB in 15 mL sodium phosphate buffer) was added. The stock solutions of tryptamine analogs were prepared in dimethyl sulfoxide (DMSO) 100%. […] All chemicals were purchased from Sigma-Aldrich, St. Louis, MO, USA and TCI Tokyo Chemical Industry Co., Ltd., Saitama, Japan. […] A negative control reaction was also performed under the same conditions but without the inclusion of samples. In this assay, the blank consisted of sodium phosphate buffer. Each experiment was conducted in triplicate.
The percentage of acetylcholinesterase inhibition activity for each tested dilution was calculated using the following equation: Percent inhibition activity%=Absorbance of control−Absorbance of test/Absorbanec of control×100
The results were then presented in a tabular format as the mean IC50 ± SD. The IC50 values, which represent the half-maximal inhibitory concentration, were determined by creating a graph that relates different concentrations (µM) to the percent inhibition (%) using the linear regression method provided by GraphPad Prism software 7 [61, 62, 63].

A further test concerns the target T2, Human recombinant COX-2 (Homo sapiens, UniProt P35354).
T2 construct: purchased BioVision (kit manual cited); the text also says reagents came from Sigma-Aldrich K547
T2 sequence (P35354 18-604): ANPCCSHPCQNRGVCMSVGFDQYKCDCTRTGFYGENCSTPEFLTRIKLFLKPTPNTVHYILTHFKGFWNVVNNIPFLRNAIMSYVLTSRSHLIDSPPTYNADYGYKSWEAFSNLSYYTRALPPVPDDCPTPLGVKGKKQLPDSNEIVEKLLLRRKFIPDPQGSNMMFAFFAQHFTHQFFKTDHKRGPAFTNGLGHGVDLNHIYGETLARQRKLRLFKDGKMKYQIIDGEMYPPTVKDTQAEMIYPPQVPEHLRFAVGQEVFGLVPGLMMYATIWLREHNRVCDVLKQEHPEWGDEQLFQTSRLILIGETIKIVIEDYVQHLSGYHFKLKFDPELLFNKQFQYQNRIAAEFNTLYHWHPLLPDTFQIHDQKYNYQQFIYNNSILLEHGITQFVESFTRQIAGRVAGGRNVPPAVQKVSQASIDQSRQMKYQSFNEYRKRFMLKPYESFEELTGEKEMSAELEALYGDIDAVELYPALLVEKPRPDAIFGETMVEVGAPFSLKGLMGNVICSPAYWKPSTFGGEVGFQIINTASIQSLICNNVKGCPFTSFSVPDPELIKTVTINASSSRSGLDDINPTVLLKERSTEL
Nature of the test: In vitro fluorometric COX-2 inhibition assay kit. Type of test: biochemical. The following applies: compounds tested at 100 µM, mean of three independent measurements; for inhibition at 100 µM: read-out: COX-2 (%Inhibition ± SD). On the procedure:
The fluorometric COX-2 inhibition assay kit provides a simple, fast, sensitive, and consistent method appropriate for carrying out high-throughput analysis for COX-2 inhibitors. The assay is based on the formation of prostaglandin G2 (PG2), which is an intermediate made from arachidonic acid under the action of the COX-2 enzyme. The reagents were prepared, and testing procedures were executed according to these recommended guidelines. The fluorescence of the samples was measured in an opaque 96-well plate at a temperature of 37 °C, precisely 5 min after the initiation of the experiment, utilizing a microplate reader from Thermo Scientific, USA. All compounds were tested at a concentration of 100 µM in a DMSO-1% solution. […] Dilutions were prepared in sodium phosphate buffer 0.1 M, pH 7.4. All the reagents were purchased from Sigma-Aldrich, St. Louis, MO, USA. The mean fluorescence values were calculated to determine the percentage of inhibition achieved by each compound. […] Each experiment was conducted in triplicate, and the percent inhibition was calculated using the following formula: % Inhibition=fluorescence of control−fluorescence of test compound/fluorescence of control×100

Setting [2] is: MAO-B extracted from rat brain, substrate benzylamine, mean of three independent measurements, read-out: MAO-B (IC50 ± SD).

Like-named read-outs stand apart in the source and are kept apart here.

AChE from electric eel, sequence (O42275 24-633): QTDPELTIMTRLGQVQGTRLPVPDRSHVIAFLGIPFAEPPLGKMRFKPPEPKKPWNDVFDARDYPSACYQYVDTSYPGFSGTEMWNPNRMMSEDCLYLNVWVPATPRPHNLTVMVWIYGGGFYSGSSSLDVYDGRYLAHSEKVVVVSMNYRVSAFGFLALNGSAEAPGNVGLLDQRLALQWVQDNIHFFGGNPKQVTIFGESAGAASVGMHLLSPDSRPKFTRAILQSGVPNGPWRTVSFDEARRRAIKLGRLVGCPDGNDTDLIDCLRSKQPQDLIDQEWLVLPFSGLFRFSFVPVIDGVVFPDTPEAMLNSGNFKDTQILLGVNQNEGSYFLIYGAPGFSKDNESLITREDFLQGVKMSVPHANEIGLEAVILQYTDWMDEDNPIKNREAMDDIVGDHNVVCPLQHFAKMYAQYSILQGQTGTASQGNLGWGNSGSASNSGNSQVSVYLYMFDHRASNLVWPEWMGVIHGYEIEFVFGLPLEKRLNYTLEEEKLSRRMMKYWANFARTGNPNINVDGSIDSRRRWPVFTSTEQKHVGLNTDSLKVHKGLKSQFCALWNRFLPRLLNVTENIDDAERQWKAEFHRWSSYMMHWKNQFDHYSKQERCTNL

In general, IC50 refers to the point on the concentration scale where inhibition reaches its midpoint. On to `C#CCN(C)Cc1ccccc1` [Pargyline, reference compound], for which, in test [1] (setting [2]), the IC50 was determined as 23.4 ± 0.32 µM.

A word on the inhibition: it is the change of the read-out against control, counted positive when it falls. Turning to `O=C(CNCCc1c[nH]c2ccccc12)c1ccc2ccccc2c1` [SR08], the IC50 in test [1] (setting [2]) came to 244.2 ± 1 µM; on AChE from electric eel, 4.36 ± 0.12 µM. Besides, the inhibition at 100 µM at Human recombinant COX-2 came out at 72.3 ± 1.67%.

Consider `O=C(CNCCc1c[nH]c2ccccc12)c1ccc(F)cc1` [SR10], for which the IC50 in test [1] (setting [2]) was found to be 216.1 ± 0.29 µM; on AChE from electric eel, 1 ± 0.08 µM. For the same compound, on Human recombinant COX-2, the inhibition at 100 µM was more than 70%.

In the case of `O=C(CNCCc1c[nH]c2ccccc12)c1ccc(F)cc1F` [SR13], the IC50 in test [1] (setting [2]) came to 50.6 ± 0.64 µM; on AChE from electric eel it was 9.68 ± 0.16 µM. Besides, on Human recombinant COX-2, the inhibition at 100 µM came out at 73.8 ± 2.37%.

Regarding `Cc1ccc(C(=O)CNCCc2c[nH]c3ccccc23)cc1` [SR14], the IC50 in test [1] (setting [2]) was found to be 112.2 ± 0.29 µM; at AChE from electric eel it was 68.71 ± 0.24 µM. The inhibition at 100 µM at Human recombinant COX-2 is 65.3 ± 2.65%.

For the compound `COc1ccc(C(=O)CNCCc2c[nH]c3ccccc23)cc1` [SR17], the IC50 in test [1] (setting [2]) was 150.1 ± 0.26 µM; at AChE from electric eel, 8.23 ± 0.12 µM. Moreover, the inhibition at 100 µM at Human recombinant COX-2 came to 72.8 ± 2.54%.

With `O=C(CNCCc1c[nH]c2ccccc12)c1ccc(O)c(O)c1` [SR20], the IC50 in test [1] (setting [2]) is 222.1 ± 0.32 µM; on AChE from electric eel, 24.97 ± 0.05 µM. Besides, the inhibition at 100 µM at Human recombinant COX-2 was 68.7 ± 3.86%.

For the compound `O=C(CNCCc1c[nH]c2ccccc12)c1ccccc1[N+](=O)[O-]` [SR21], the IC50 in test [1] (setting [2]) turned out to be 142.1 ± 0.32 µM; at AChE from electric eel, 87.73 ± 0.16 µM. Besides, the inhibition at 100 µM at Human recombinant COX-2 was 34.4 ± 3.34%.

`O=C(CNCCc1c[nH]c2ccccc12)c1cccc([N+](=O)[O-])c1` [SR22]: the concentration for half-maximal inhibition (IC50) was found to be 56.46 ± 0.41 µM in test [1] (setting [2]) and 54.88 ± 0.19 µM at AChE from electric eel. Also, at Human recombinant COX-2, the inhibition at 100 µM was determined as 84.1 ± 4.53%.

As for `O=C(CNCCc1c[nH]c2ccccc12)c1ccc([N+](=O)[O-])cc1` [SR23], the IC50 in test [1] (setting [2]) is 95.1 ± 0.43 µM; on AChE from electric eel, 7.33 ± 0.12 µM. Also, at Human recombinant COX-2 (100 µM), the “COX-2 (%Inhibition ± SD)” value worked out at 71.40 ± 3.11%. Besides, the inhibition at 100 µM on Human recombinant COX-2 worked out at 69.4 ± 3.11%.

With `O=C(CNCCc1c[nH]c2ccccc12)c1ccc(-c2ccccc2)cc1` [SR24], the IC50 is 133.2 ± 0.46 µM in test [1] and 6.7 ± 0.08 µM at AChE from electric eel. Also, at Human recombinant COX-2, the inhibition at 100 µM was 79.3 ± 2.02%.

Regarding `O=C(CCNCCc1c[nH]c2ccccc12)c1ccccc1` [SR25], the figures for the IC50 (in test [1]; at AChE from electric eel) were 85.1 ± 0.26 µM and 0.17 ± 0.02 µM, respectively. The inhibition at 100 µM at Human recombinant COX-2 was more than 70%.

With `O=C(NCCc1c[nH]c2ccccc12)c1cc([N+](=O)[O-])cc([N+](=O)[O-])c1` [SR42], the IC50 worked out at 43.2 ± 0.46 µM in test [1] (setting [2]) and 0.7 ± 0.21 µM on AChE from electric eel. Besides, the inhibition at 100 µM on Human recombinant COX-2 was more than 70%.

For the compound `NCCc1c[nH]c2ccccc12` [Tryptamine], the IC50 came out at 288.1 ± 0.32 µM in test [1] (setting [2]) and 88.26 ± 0.24 µM at AChE from electric eel. For the same compound, the inhibition at 100 µM on Human recombinant COX-2 amounted to 57.3 ± 4.96%.

Values taken from paper PMC10820890, “Potential of Tryptamine Derivatives as Multi-Target Directed Ligands for Alzheimer’s Disease: AChE, MAO-B, and COX-2 as Molecular Targets” (Molecules, 2024).
